According to patent publication US9969726B2, “Metabotropic glutamate receptor negative allosteric modulators (NAMS) and uses thereof” (Sanford-Burnham Medical Research Institute, priority 2014, dated 2018):
Like-named read-outs stand apart in the source and are kept apart here.

Legend:
[1] = target: rat mGlu2 receptor (Rattus norvegicus (Rat), UniProt P31421); assay: mGlu2 in vitro GIRK thallium flux assay; type: cell-based; conditions: NAM, EC80 glutamate, HEK-293 GIRK cells
Procedure, shortened: (§1)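 Cells expressing rat mGlu2 or mGlu3 with GIRK, plated overnight at 37 °C. Test compounds (0.3% DMSO, 10-point 1:3 series) preincubated 2.5 or 60 min, then thallium buffer plus EC80 glutamate added. Fluorescence slope 5–15 s after addition, normalised to vehicle and maximal agonist, fitted by four-parameter logistic.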

[2] = target: rat mGlu3 receptor (Rattus norvegicus (Rat), UniProt P31422); assay: mGlu3 in vitro GIRK thallium flux assay; type: cell-based; conditions: NAM; 2.5 min compound incubation; EC80 glutamate; HEK-293 GIRK cells
Procedure, shortened: as §1

[3] = 2.5 min compound incubation, read-out: mGlu2 EC50 (μM) (2.5 min)
[4] = read-out: mGlu2 EC50 (μM) (60 min), 60 min compound incubation

Chain of rat mGlu3 receptor (P31422 23-879): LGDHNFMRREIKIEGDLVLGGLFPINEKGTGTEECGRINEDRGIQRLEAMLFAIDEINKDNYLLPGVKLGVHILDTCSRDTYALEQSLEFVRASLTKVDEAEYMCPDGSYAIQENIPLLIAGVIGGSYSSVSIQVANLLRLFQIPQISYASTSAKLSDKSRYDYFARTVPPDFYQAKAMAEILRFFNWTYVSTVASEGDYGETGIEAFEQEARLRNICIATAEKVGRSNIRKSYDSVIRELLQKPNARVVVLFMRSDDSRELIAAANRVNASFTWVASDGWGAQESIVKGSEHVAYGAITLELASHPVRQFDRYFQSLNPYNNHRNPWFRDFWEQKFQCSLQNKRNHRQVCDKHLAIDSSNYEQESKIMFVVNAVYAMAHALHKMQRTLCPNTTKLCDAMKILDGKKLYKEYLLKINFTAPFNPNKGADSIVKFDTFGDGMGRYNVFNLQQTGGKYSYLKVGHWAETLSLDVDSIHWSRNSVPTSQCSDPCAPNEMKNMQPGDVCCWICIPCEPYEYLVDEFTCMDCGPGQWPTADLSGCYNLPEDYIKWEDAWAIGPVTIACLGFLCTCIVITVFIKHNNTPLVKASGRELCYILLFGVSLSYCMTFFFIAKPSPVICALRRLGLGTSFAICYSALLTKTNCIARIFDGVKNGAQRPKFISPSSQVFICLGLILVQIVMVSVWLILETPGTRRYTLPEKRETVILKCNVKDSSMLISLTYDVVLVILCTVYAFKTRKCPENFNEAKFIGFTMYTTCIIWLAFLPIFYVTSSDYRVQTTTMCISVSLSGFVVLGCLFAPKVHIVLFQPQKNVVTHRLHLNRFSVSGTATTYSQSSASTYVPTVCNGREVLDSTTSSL
Chain of rat mGlu2 receptor (P31421 19-872): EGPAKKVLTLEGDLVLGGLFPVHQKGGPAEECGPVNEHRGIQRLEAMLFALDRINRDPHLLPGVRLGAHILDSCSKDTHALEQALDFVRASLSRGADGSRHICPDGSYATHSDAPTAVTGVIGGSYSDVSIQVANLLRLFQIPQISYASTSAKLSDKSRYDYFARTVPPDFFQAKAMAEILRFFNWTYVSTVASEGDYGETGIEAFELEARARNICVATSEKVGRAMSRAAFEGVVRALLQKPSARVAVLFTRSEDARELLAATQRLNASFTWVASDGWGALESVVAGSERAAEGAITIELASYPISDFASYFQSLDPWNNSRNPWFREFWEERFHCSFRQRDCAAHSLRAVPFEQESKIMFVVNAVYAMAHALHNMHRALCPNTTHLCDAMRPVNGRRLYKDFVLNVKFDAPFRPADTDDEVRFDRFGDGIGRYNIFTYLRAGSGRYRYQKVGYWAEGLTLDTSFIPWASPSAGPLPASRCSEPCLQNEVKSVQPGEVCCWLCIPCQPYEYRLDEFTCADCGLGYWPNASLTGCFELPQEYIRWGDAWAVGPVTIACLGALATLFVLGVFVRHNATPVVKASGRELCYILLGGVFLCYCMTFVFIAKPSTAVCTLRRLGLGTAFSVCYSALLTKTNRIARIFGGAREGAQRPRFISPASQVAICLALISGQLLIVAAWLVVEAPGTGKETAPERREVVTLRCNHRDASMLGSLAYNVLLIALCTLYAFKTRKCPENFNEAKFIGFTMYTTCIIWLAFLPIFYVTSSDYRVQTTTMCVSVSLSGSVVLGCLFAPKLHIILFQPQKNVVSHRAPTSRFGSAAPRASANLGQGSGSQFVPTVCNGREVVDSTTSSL

Structure (SMILES)	EC50 [1, 3] [µM]	EC50 [1, 4] [µM]	EC50 [2] [µM]
O=C(O)c1ccc(-c2cccc(-c3nc(-c4ccc(C(F)(F)F)nc4)cc(C(F)(F)F)n3)c2)c(Cl)c1 [Example 78, 2-Chloro-3′-(4-(trifluoromethyl)-6-(6-(trifluoromethyl)pyridin-3-yl)pyrimidin-2-yl)biphenyl-4-carboxylic Acid]	3.49	1.18	6.32
O=C(O)c1ccc(-c2cccc(-c3nc(-c4ccc(C(F)(F)F)nc4)cc(C(F)(F)F)n3)c2)s1 [Example 80, 5-(3-(4-(Trifluoromethyl)-6-(6-(trifluoromethyl)pyridin-3-yl)pyrimidin-2-yl)phenyl)thiophene-2-carboxylic Acid]	0.78	0.13	2.4
O=C(O)c1ccc(-c2ccc(-c3nc(-c4ccc(C(F)(F)F)nc4)cc(C(F)(F)F)n3)cc2)cc1 [Example 81, 4′-(4-(Trifluoromethyl)-6-(6-(trifluoromethyl)pyridin-3-yl)pyrimidin-2-yl)biphenyl-4-carboxylic Acid]	3.78	0.44	2.13
O=C(O)c1cc(-c2ccc(-c3nc(-c4ccc(C(F)(F)F)nc4)cc(C(F)(F)F)n3)cc2)ccc1F [Example 82, 4-Fluoro-4′-(4-(trifluoromethyl)-6-(6-(trifluoromethyl)pyridin-3-yl)pyrimidin-2-yl)biphenyl-3-carboxylic Acid]	1.42	0.49	1.32
O=C(O)c1cc(-c2ccc(-c3nc(-c4ccc(C(F)(F)F)nc4)cc(C(F)(F)F)n3)cc2)ccc1Cl [Example 83, 4-Chloro-4′-(4-(trifluoromethyl)-6-(6-(trifluoromethyl)pyridin-3-yl)pyrimidin-2-yl)biphenyl-3-carboxylic Acid]	2.95	1.23	> 10
O=C(O)c1cc(F)cc(-c2ccc(-c3nc(-c4ccc(C(F)(F)F)nc4)cc(C(F)(F)F)n3)cc2)c1 [Example 84, 5-Fluoro-4′-(4-(trifluoromethyl)-6-(6-(trifluoromethyl)pyridin-3-yl)pyrimidin-2-yl)biphenyl-3-carboxylic Acid]	2.79	–	4.91
CNC(=O)c1cc(-c2cccc(-c3nc(-c4ccc(C(F)(F)F)nc4)cc(C(F)(F)F)n3)c2)ccc1Cl [Example 85, 4-Chloro-N-methyl-3′-(4-(trifluoromethyl)-6-(6-(trifluoromethyl)pyridin-3-yl)pyrimidin-2-yl)biphenyl-3-carboxamide]	> 30	> 10	> 30
O=C(O)c1cc(-c2cccc(-c3nc(-c4cccs4)cc(C(F)(F)F)n3)c2)ccc1F [Example 87A, 4-Fluoro-3′-(4-(thiophen-2-yl)-6-(trifluoromethyl)pyrimidin-2-yl)biphenyl-3-carboxylic Acid]	1.12	0.24	1.26
O=C(O)c1cc(-c2cccc(-c3nc(-c4ccco4)cc(C(F)(F)F)n3)c2)ccc1F [Example 88, 4-Fluoro-3′-(4-(furan-2-yl)-6-(trifluoromethyl)pyrimidin-2-yl)biphenyl-3-carboxylic Acid]	0.68	0.34	1.13
COc1ccc(-c2cccc(-c3nc(-c4ccco4)cc(C(F)(F)F)n3)c2)cc1C(=O)O [Example 90, 3′-(4-(Furan-2-yl)-6-(trifluoromethyl)pyrimidin-2-yl)-4-methoxybiphenyl-3-carboxylic Acid]	3.68	2.49	> 10
Cc1ccccc1-c1cc(C(F)(F)F)nc(-c2cccc(-c3ccc(F)c(C(=O)O)c3)c2)n1 [Example 91, 4-Fluoro-3′-(4-o-tolyl-6-(trifluoromethyl)pyrimidin-2-yl)biphenyl-3-carboxylic acid]	1.52	0.28	> 10
Cc1cccc(-c2cc(C(F)(F)F)nc(-c3cccc(-c4ccc(F)c(C(=O)O)c4)c3)n2)c1 [Example 92, 4-Fluoro-3′-(4-m-tolyl-6-(trifluoromethyl)pyrimidin-2-yl)biphenyl-3-carboxylic Acid]	2.79	0.4	3.37
Cc1cc(C)cc(-c2cc(C(F)(F)F)nc(-c3cccc(-c4ccc(F)c(C(=O)O)c4)c3)n2)c1 [Example 93, 3′-(4-(3,5-Dimethylphenyl)-6-(trifluoromethyl)pyrimidin-2-yl)-4-fluorobiphenyl-3-carboxylic Acid]	> 10	1.6	> 10
O=C(O)c1cc(-c2cccc(-c3nc(/C=C/c4ccccc4)cc(C(F)(F)F)n3)c2)ccc1F [Example 95, (E)-4-Fluoro-3′-(4-styryl-6-(trifluoromethyl)pyrimidin-2-yl)biphenyl-3-carboxylic Acid]	> 10	–	> 10
CC(C)(C)c1ccc(-c2cc(C(F)(F)F)nc(-c3cccc(-c4ccc(F)c(C(=O)O)c4)c3)n2)cc1 [Example 96, 3′-(4-(4-tert-Butylphenyl)-6-(trifluoromethyl)pyrimidin-2-yl)-4-fluorobiphenyl-3-carboxylic Acid]	5.38	1.08	6.11
O=C(O)c1cc(-c2cccc(-c3nc(-c4cccnc4F)cc(C(F)(F)F)n3)c2)ccc1F [Example 97, 4-Fluoro-3′-(4-(2-fluoropyridin-3-yl)-6-(trifluoromethyl)pyrimidin-2-yl)biphenyl-3-carboxylic Acid]	1.07	0.36	2.21
O=C(O)c1cc(-c2cccc(-c3nc(-c4ccc(Cl)cc4)cc(C(F)(F)F)n3)c2)ccc1F [Example 98, 3′-(4-(4-Chlorophenyl)-6-(trifluoromethyl)pyrimidin-2-yl)-4-fluorobiphenyl-3-carboxylic Acid]	2.87	0.35	2.47
COc1ccc(-c2cc(C(F)(F)F)nc(-c3cccc(-c4ccc(F)c(C(=O)O)c4)c3)n2)cc1OC [Example 99, 3′-(4-(3,4-Dimethoxyphenyl)-6-(trifluoromethyl)pyrimidin-2-yl)-4-fluorobiphenyl-3-carboxylic Acid]	> 10	1.3	2.83
O=C(O)c1cc(-c2cccc(-c3nc(-c4ccccc4F)cc(C(F)(F)F)n3)c2)ccc1F [Example 100, 4-Fluoro-3′-(4-(2-fluorophenyl)-6-(trifluoromethyl)pyrimidin-2-yl)biphenyl-3-carboxylic Acid]	1.21	0.16	2.21
O=C(O)c1cc(-c2cccc(-c3nc(-c4cc5ccccc5o4)cc(C(F)(F)F)n3)c2)ccc1F [Example 101, 3′-(4-(Benzofuran-2-yl)-6-(trifluoromethyl)pyrimidin-2-yl)-4-fluorobiphenyl-3-carboxylic Acid]	> 10	0.95	> 10
O=C(O)c1cc(-c2cccc(-c3nc(-c4cc5ccccc5s4)cc(C(F)(F)F)n3)c2)ccc1F [Example 102, 3′-(4-(Benzo[b]thiophen-2-yl)-6-(trifluoromethyl)pyrimidin-2-yl)-4-fluorobiphenyl-3-carboxylic Acid]	3.33	0.88	3.12
CSc1ccc(-c2cc(C(F)(F)F)nc(-c3cccc(-c4ccc(F)c(C(=O)O)c4)c3)n2)cc1 [Example 103, 4-Fluoro-3′-(4-(4-(methylthio)phenyl)-6-(trifluoromethyl)pyrimidin-2-yl)biphenyl-3-carboxylic Acid]	4.69	0.99	4.54
